Here are results for three molecules from patent US20220315598A1, “Oxygen-containing Heterocyclic Compound, Preparation Method Therefor and Use Thereof” (SHANGHAI YINGLI PHARMACEUTICAL CO., LTD, priority 2019, published 2022).

Read-outs that look alike come from different tables or passages of the source.

The target in experiment [1] is CYP3A4 (Homo sapiens, UniProt P08684). As to the kind of experiment: Inhibition of metabolic enzymes in vitro, human liver microsomes, CYP3A4. The method, then:
(§1) Test purpose: In this test, human liver microsomes and CYP enzyme-specific substrates were used to test the effects of different concentrations of compounds to be tested on metabolic rates of enzyme-specific substrates, so as to determine inhibitory effects of these compounds on CYP enzymes in human liver microsomes.
(§2) 1. preparing […] potassium phosphate buffer (pH 7.4);
(§3) 2. preparing stock solutions of compounds to be tested (10 mM), NADPH solutions (8 mM, which was 4 times the final concentration), positive compound stock solutions, substrate stock solutions and human liver microsome solutions (see the table below);
4. preparing positive control inhibitor solutions: dissolving 8 μL of positive control inhibitor stock solutions in 12 μL of acetonitrile, and then using a mixed solution of 40% DMSO and 60% acetonitrile to perform a 1:3 gradient dilution as follows (wherein the concentration was 400 times the final concentration, which was described in the table below);
6. preparing mixed solutions of positive control compounds and human liver microsomes: adding 200 μL of 0.2 mg/mL human liver microsomes to a 96-well plate, and adding 1 μL of diluted solutions of positive control compounds;
7. dispensing 30 μL of mixed solutions of the compounds and human liver microsomes to a 96-well plate, and then adding […] substrate solutions: adding […] preheated NADPH solutions to a preheated reaction plate and mixing evenly to start the reaction;
8. incubating the reaction plate at 37° C.; 3A4 was reacted for 5 minutes; 1A2, 2C9 and 2D6 were reacted for 10 minutes; 2C19 was reacted for 45 minutes;
9, after completion of the addition, adding 120 μL of acetonitrile containing internal standard to terminate the reaction: after terminating the reaction, shaking the sample on a shaker at 600 rpm/min for 10 minutes and centrifuging same at 3220×g for 15 minutes; after centrifugation, taking out 50 μL of supernatant and mixing same with 50 μL of water for analysis by LC-MS/MS.
According to the following equation, the data was plotted and fitted using a dose-response model in GraphPad Prism software to calculate IC50.
Y=Bottom+(Top−Bottom)/(1+10^((Log IC50−X)×HillSlope))
X represents the logarithm concentration of the inhibitor, and Y represents the relative activity of the enzyme at a certain inhibitor concentration (relative to the condition without inhibitor).

Experiment [2] addresses CYP2D6 (Homo sapiens, UniProt P10635). In words: Inhibition of metabolic enzymes in vitro, human liver microsomes, CYP2D6. On the procedure: as §1, §2, §3
(§4) 3. preparing solutions of compounds to be tested: dissolving 8 μL of 10 mM stock solution of compounds to be tested in 12 μL of acetonitrile, and then using a mixed solution of 40% DMSO and 60% acetonitrile to perform a 1:3 gradient dilution as follows (wherein the concentration was 400 times the final concentration): 4 mM, 1.333 mM, 0.444 mM, 0.148 mM, 0.0494 mM, 0.0165 mM, 0.00549 mM and 0 mM.
(§5) 4. preparing positive control inhibitor solutions: dissolving 8 μL of positive control inhibitor stock solutions in 12 μL of acetonitrile, and then using a mixed solution of 40% DMSO and 60% acetonitrile to perform a 1:3 gradient dilution as follows (wherein the concentration was 400 times the final concentration, which was described in the table below); […]

In experiment [3] the target is T1, CYP1A2 (Homo sapiens, UniProt P05177).
T1 construct: human liver microsomes and CYP enzyme-specific substrates were used; from tissue; host or cells: human liver microsomes
T1 sequence (P05177 1-516): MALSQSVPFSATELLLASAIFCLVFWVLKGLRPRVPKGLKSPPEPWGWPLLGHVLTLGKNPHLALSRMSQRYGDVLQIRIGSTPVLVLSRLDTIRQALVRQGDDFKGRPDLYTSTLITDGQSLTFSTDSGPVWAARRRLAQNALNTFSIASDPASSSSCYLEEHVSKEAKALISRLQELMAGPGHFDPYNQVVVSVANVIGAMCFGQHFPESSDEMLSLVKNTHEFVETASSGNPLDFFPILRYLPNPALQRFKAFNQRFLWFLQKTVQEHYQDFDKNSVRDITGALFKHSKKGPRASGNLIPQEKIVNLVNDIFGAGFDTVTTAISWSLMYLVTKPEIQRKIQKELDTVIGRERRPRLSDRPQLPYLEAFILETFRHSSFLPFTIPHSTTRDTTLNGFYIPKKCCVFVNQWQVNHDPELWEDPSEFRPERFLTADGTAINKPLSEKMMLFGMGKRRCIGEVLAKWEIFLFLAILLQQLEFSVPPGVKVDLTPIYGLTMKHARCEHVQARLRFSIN
As to the kind of experiment: Inhibition of metabolic enzymes in vitro, human liver microsomes, CYP1A2. The settings on record: substrate Phenacetin. It is filed as in vitro ADME. The method, then: as §1, §2, §3, §4, §5

Experiment [4] addresses T2, CYP2C19 (Homo sapiens, UniProt P33261).
T2 construct: human liver microsomes and CYP enzyme-specific substrates were used; from tissue; host or cells: human liver microsomes
In words: Inhibition of metabolic enzymes in vitro, human liver microsomes, CYP2C19. The format is in vitro ADME. The settings on record: substrate S-Mephenytoin. On the procedure:
as §1, §2, §3, §4, §5

Experiment [5] concerns the target T3, CYP2C9 (Homo sapiens, UniProt P11712).
T3 construct: human liver microsomes and CYP enzyme-specific substrates were used; from tissue; host or cells: human liver microsomes
As to the kind of experiment: Inhibition of metabolic enzymes in vitro, human liver microsomes, CYP2C9. It is filed as in vitro ADME. The settings on record: substrate Diclofenac. On the procedure: as §1, §2, §3, §4, §5

For experiment [6], the system named is A375 cells. As to the kind of experiment: Proliferation inhibition on A375 cell line by CTG method. The settings on record: Homo sapiens, A-375; Table 1; CellTiter Glo, 120 hours; class symbol. The format is cell-based. The method, then:
(§6) NCI-H358 was a human non-small cell lung cancer cell with KRAS G12C mutation; A549 was a human non-small cell lung cancer cell with KRAS G12V mutation: and A375 was a wild-type malignant melanoma cell. The inhibitory effects of compounds on different mutations were evaluated by testing the proliferation inhibitory activity of these compounds on the three cell lines.
(§7) 40 μL of cell suspension to be tested was added to each well (except for peripheral wells) of three 384-well plates (plate 1: NCI-H358 cell suspension: plate 2: A549 cell suspension: plate 3: A375 cell suspension). The plates were placed in a carbon dioxide incubator overnight. […] The plates were incubated in a carbon dioxide incubator for 120 hours. To the 384-well plates were added 25 μL of CellTiter Glo reagents, and the mixture was shaken in the dark for 10 minutes and incubated for 10 minutes. The plates were read on the EnVision plate reader. XLFit was used to draw inhibition rate curves of efficacy and IC50 values were calculated. […] “---” represents not determined.

The subject of experiment [7] is A549 cells. In words: Proliferation inhibition on A549 cell line by CTG method. The format is cell-based, human. The settings on record: Homo sapiens, A549, 120 h, Table 1, CellTiter Glo, class symbol. On the procedure:
as §6, §7

Experiment [8] deals with NCI-H358 cells. In words: Proliferation inhibition on NCI-H358 cell line by CTG method. The settings on record: for IC50: Homo sapiens, NCI-H358, 120 h, CellTiter Glo, 120 hours. It is filed as cell-based, human. The method, then:
as §6, §7
Experiments for Testing Proliferation Inhibition of Compounds on NCI-H358 Cell Lines by CTG Method

In experiment [9] the test system is MIA PaCa-2 cells. As to the kind of experiment: Proliferation inhibition on MIA PaCa-2 cell line by CTG method. It is filed as cell-based, human. On the procedure:
Experiments for Testing Proliferation Inhibition of Compounds on MIA PaCa-2 Cell Lines by CTG Method
40 μL of MIA PaCa-2 cell suspension was added to each well (except for peripheral wells) of 384-well plates. The plates were placed in a carbon dioxide incubator overnight. […] The plates were incubated in a carbon dioxide incubator for 120 hours. To the 384-well plates were added 25 μL of CellTiter Glo reagents, and the mixture was shaken in the dark for 10 minutes and incubated for 10 minutes. The plates were read on the EnVision plate reader. XLFit was used to draw inhibition rate curves of efficacy and IC50 values were calculated. […] “---” represents not determined.
MIA PaCa-2 was a human pancreatic cancer cell with KRAS G12C mutation. The activity of compounds can be evaluated by detecting the proliferation inhibitory activity of these compounds on such cell line.

The mark [10] stands for this setting: IC50 (μM) CYP3A4 (Midazolam), substrate Midazolam.
Where [11] appears, read: IC50 (μM) CYP3A4 (Testosterone), substrate Testosterone.

Sequence of CYP3A4 (P08684 whole entry): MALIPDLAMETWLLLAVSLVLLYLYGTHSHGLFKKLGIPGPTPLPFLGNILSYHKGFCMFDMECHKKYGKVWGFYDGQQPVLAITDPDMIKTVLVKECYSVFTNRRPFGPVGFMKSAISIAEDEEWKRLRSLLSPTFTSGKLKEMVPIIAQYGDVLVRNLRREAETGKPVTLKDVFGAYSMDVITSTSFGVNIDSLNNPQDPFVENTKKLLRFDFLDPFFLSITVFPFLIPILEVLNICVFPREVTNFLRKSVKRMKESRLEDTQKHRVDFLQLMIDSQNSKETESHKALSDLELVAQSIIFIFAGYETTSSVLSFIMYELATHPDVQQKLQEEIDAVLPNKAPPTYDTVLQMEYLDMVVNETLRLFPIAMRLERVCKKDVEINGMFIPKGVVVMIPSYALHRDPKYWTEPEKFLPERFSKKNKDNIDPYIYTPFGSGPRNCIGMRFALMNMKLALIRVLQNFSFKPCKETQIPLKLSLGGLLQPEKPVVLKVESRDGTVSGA
Sequence of CYP2D6 (P10635 whole entry): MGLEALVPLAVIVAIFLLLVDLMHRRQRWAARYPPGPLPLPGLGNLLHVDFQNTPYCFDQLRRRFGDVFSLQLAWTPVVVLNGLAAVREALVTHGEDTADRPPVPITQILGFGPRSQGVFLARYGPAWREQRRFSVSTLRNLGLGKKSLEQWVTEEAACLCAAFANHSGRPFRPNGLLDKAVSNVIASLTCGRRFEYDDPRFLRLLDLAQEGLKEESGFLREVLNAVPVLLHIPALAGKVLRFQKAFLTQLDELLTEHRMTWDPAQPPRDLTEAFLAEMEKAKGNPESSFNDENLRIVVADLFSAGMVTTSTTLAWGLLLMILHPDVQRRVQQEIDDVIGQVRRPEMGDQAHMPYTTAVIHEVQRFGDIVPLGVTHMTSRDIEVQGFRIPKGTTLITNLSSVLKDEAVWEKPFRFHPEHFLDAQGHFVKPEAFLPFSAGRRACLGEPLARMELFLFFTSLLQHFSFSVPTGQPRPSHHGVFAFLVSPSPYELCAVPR
T3 sequence (P11712 whole entry): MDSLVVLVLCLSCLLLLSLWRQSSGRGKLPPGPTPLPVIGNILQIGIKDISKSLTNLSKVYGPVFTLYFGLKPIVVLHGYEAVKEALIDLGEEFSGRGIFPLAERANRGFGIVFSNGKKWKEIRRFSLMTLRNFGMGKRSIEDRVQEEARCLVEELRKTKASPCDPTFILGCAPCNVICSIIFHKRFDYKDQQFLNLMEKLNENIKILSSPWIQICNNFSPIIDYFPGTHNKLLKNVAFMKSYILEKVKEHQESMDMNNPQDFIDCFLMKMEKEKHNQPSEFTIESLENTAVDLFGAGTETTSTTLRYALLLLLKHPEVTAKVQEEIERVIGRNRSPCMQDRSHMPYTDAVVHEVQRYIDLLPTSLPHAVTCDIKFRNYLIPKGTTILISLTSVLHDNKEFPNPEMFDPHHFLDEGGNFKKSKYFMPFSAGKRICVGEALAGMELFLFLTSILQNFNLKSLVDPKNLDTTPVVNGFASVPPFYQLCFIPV
T2 sequence (P33261 whole entry): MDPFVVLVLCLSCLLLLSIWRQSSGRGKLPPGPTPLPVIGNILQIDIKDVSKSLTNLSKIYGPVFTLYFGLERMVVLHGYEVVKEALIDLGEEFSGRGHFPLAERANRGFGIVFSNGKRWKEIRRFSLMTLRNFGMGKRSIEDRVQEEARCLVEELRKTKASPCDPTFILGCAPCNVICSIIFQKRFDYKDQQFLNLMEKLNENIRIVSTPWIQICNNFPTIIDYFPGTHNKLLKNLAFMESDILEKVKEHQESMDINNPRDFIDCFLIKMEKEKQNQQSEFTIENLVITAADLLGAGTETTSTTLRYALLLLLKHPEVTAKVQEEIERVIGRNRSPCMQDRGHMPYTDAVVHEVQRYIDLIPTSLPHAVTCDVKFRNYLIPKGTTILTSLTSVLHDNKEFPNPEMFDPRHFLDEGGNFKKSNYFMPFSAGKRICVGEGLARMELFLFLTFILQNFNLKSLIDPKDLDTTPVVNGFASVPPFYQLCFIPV

Regarding `C=CC(=O)N1CCN(c2nc(=O)n(-c3c(C)ccnc3C(C)C)c3nc(-c4c(O)cccc4F)c(F)cc23)[C@@H](C)C1` (atropisomer, axis not shown) [AMG-510], the IC50 in experiment [1] (setting [10]) is 4.46 µM; in experiment [1] (setting [11]), over 10 µM; in [2], over 10 µM; in experiment [3], over 10 µM; in experiment [4] it was over 10 µM; in experiment [5], over 10 µM.
For the molecule `C=CC(=O)N1CCN(c2nc(OC[C@@H]3CCCN3C)nc3c2COC(c2ccccc2C(F)(F)F)C3)C[C@@H]1CC#N` (some centres unmarked) [Compound 2-2], the IC50 in experiment [6] was over 1 µM; in experiment [7], over 1 µM; in experiment [8] (Table 1, class symbol, read-out: IC50 (μM): (H358)), under 1 µM; in experiment [8] (Table 1, number, read-out: IC50 (μM): (H358)), 0.0025 µM; in experiment [8] (Table 2, number, read-out: IC50 (nM) H358), 0.0025 µM; in experiment [9] (Homo sapiens, MIA PaCa-2, Table 2, CellTiter Glo, 120 hours, number), 1.9 nM. Besides, in experiment [8] (Table 1), the “proliferation inhibitory activity on NCI-H358 cells, in words” value is given as “significantly better than that of the corresponding comparative compound 1′”. Besides, the “proliferation inhibitory activity, comparison in words” value in experiment [9] (text on Table 2 (H358 and MIA PaCa-2 cells)) was “significantly better than that of the corresponding comparative compounds 1′ and 3′”.
`C=C(F)C(=O)N1CCN(c2nc(OC[C@@H]3CCCN3C)nc3c2CCN(c2cccc4cccc(Cl)c24)C3)C[C@@H]1CC#N` [MRTX849]: the IC50 was 5.92 µM in experiment [1] (setting [10]); 7.85 µM in experiment [1] (setting [11]); over 10 µM in experiment [2]; over 10 µM in [3]; over 10 µM in experiment [4]; 2.29 µM in [5].
